Experimental data published in patent publication US9968634B2, “Techniques and systems for treatment of neuropathic pain and other indications” (priority 2012, dated 2018).

Experiments:
[1] = test system: capillary circulation of the skin; assay: Laser Doppler study of creams in five human subjects, Example 7; format: in vivo; settings: positive control formulation, 0.1% methyl nicotinate
Source text: This example illustrates delivery of nitric oxide formulations to five human subjects, using procedures and formulations similar to those discussed in Example 5. Each person served as their own control for the testing. A Moor Instruments Laser Doppler was used to determine circulation. […] The formulations used produce positive, almost immediate results when applied to the skin which, in these studies, was manifested by vasodilatation of the cutaneous vascular system.
For each subject, the following creams were applied: a negative control formulation (containing no NO), 0.010 gram of a 10,000 ppm NO formulation, 0.020 gram of a 10,000 ppm NO formulation, and a positive control formulation containing 0.1% methyl nicotinate. The formulations were prepared using procedures similar to those discussed in Example 1.

[2] = test system: micro-capillary blood flow to skin; assay: Laser Doppler study with closed Hilltop chamber on forearm, Example 5; format: in vivo, human; settings: applied to the skin at 1/10% in alcohol
Source text: The formulation used in these studies contained nitric oxide dispersed in a lipid matrix. […] Nitric oxide is a very rapid acting molecule, and these studies used a system that employed laser Doppler with a covered chamber. The formulation was placed into the chamber and then attached to the skin by an adhesive layer on the covering. This provided a stable measuring device as determined by multiple normal evaluations of the capillary blood flow without treatment of nitric oxide.
A known positive control, methyl nicotinate, was applied to the skin at a concentration of 1/10% in alcohol. […] The vascular dynamics are such that when the blood vessels dilate physical parameters follow Bernoulli's law. […] The laser Doppler device accurately measured these parameters.
In these studies, the participants were healthy females aged 30 to 55 years. They were in good health as determined by the medical history and were not taking any prescription medications. All study participants read and signed the informed consent statement prior to any study procedures being performed. […]
A Moor Instruments DRT4 Laser Doppler Blood Flow Monitor (Devon, England) was used in these studies. The laser Doppler technique measured blood flow in the microcapillaries of the skin that are close to the skin surface and the blood flow in underlying arterioles and venules that help to regulate skin temperature. […]

COC(=O)c1cccnc1 [methyl nicotinate]
vasodilatation (laser Doppler) [1]: vasodilatation was observed
laser Doppler response of positive control [2]: rapid response typical of the vasodilator
